Reference: publication PMC8398714, “Synthesis and Evaluation of Biological Activities of Bis(spiropyrazolone)cyclopropanes: A Potential Application against Leishmaniasis” (Molecules, 2021)
“And” between values parts separate entries of the source, which are not always exact repeats. Identical values can stand only once. “Also recorded” adds a separate entry of the source.

Legend:
[1] = DPPH radical scavenging assay; conditions: 30 min, 515 nm
Procedure: The stock solution of the compounds was prepared by dissolving 4 in dimethyl sulfoxide (DMSO) to a concentration of 4 mg/mL. The solution was diluted with methanol until a concentration of 400 µg/mL was obtained and then used immediately.
The experimental procedure was adapted from the literature. Briefly, 100 µL of a 0.2 mM methanol solution of DPPH (2, 2-diphenyl-1-picrylhydrazyl) radical were added to 100 µL of methanolic solutions of 4 prepared as serial two-fold dilutions from the stock solution in 96-well microfilter plates. Standards and edaravone were also prepared in the same concentrations. The mixture was incubated in dark at room temperature for 30 min and the absorbance was read at 515 nm on a Cytation 5 (BioTek) spectrophotometer.
The % DPPH scavenging activity was then calculated by using the following formula:(1) % DPPH scavenging = 100 × [(Asample+DPPH−Asample blank)/(ADPPH−Asolvent)]
The antioxidant activity of the compound was expressed as IC50, which is defined as the concentration that could scavenge 50% of the DPPH free radical. The IC50 values were calculated in GraphPad Prism 7.02 (GraphPad Software, Corp.) The results are given as a mean ± standard deviation (SD) of experiments done in triplicate.

[2] = test system: RKO; test: MTS cell viability assay on RKO cells; type: cell-based; conditions: Homo sapiens, 48 h; for inhibition at 100 µM: Dox 1 µM, mean ± SEM, NA = no activity, read-out: Percentage (%) of inhibition, RKO; for IC50: 15-150 µM, mean ± SEM of triplicates
Procedure: (§1) Five tumor human cancer cell lines—cerebral astrocytoma (D-384), grade IV prostatic adenocarcinoma (PC-3), mammary adenocarcinoma (MCF-7), human colon carcinoma (RKO) and lung carcinoma (A-549)—along with one immortalized hamster cell line (CHO K-1) were used. The cells PC-3, MCF-7 and RKO were cultured in RPMI-1640, D-384 on DMEM and CHO K-1 on HAM F-12 medium supplemented with 10% fetal bovine serum (FBS, Invitrogen, Karlsruhe, Germany), 1% antibiotic-antimitotic solution (100 units/mL penicillin G, 100 µg/mL streptomycin, and 0.25 µg/mL amphotericin B, Gibco, Grand Island, NY, USA), and 1% L-glutamine (2 mM, Gibco). The cells were incubated at 37 °C in a 5% CO2 atmosphere. The viable cells were counted using the trypan blue exclusion method in a hemocytometer.
(§2) The MTS (5-[3-(carboxymethoxy)phenyl]-3-(4,5-dimethyl-2-thiazolyl)-2-(4-sulfo- phenyl)-2H-tetrazolium inner salt) cell viability assay was used to assess the inhibitory effects of the extracts on the survival of human cancer cell lines. A total of 3–5 × 10^3 cells/well were seeded into 96-well plates and were allowed to adhere for 24 h. […] Each concentration/assay was performed three times. Dimethyl sulfoxide (DMSO) was used as a negative control at a final concentration of 0.1% v/v, and 1 µM Doxorubicin was used as a positive control. The cells were incubated with the treatments for 48 h, after which 20 µL MTS (5 mg/mL, Aqueous One Solution Reagent, Gibco) was added and further incubated for 4 h at 37 °C. The absorbance was measured at 570 nm. The data obtained with cells treated with DMSO were defined to represent 100% viability.

[3] = test system: Leishmania mexicana cells; test: Comet assay of Leishmania mexicana cells; type: cell-based; design: Comet tail length, mean (vary) / Comet tail length, median (Q50): unit not given here; conditions: L. mexicana, 24 h at MIC; for Comet tail length, mean (vary) / Comet tail length, median (Q50): MMS 0.011%, Kruskal-Wallis $means; for Genotoxic effect (DNA breaks) in comet assay: in words
Procedure: We quantified DNA breaks by a comet assay to determine if these compounds are genotoxic. Here, L. mexicana cells were exposed for 24 h to MIC concentrations previously determined (see Materials and Methods Section) for each compound. Figure 1 represents the measurements obtained for tail length. All compounds generated DNA breaks expect 4s. […] Samples with DMSO and MMS (0.011%) were included as controls. Some representative pictures are shown at Figure S4. The effect of 4p could not be determined because the cells appear to be very damaged. The data was subjected via a Kruskal–Wallis one-way ANOVA (Statistical Analyses S2). […] These observations support a mechanism of action through the generation of DNA damage.
For leishmania, a method previously described for yeast was adapted. Briefly, after incubating the cells in presence of the compounds for 24 h, cells were collected and washed with buffer S (1 M sorbitol, 25 mM KH2PO4 in ultrapure water and adjust to pH 6.5 with NaOH). The pellet was resuspended in 400 µL of 1.5% LMA and 40 µL was spread (second layer) onto previously agarose-coated slides (first layer).
Slides were immersed in cold lysis buffer (30 mM NaOH, 1 M NaCl, 0.05 % (w/v) lauroylsarcosine, 50 mM EDTA, and 10 mM Tris–HCl, pH 10) for 25 min and then in cold electrophoresis alkaline buffer (30 mM NaOH, 10 mM EDTA, and 10 mM Tris–HCl, pH 10). They were then subjected to electrophoresis at 26V and 300 mA. Slides were immersed in neutralization buffer (10 mM Tris–HCl, pH 7.4; prepared in advance and stored at 4 °C) for 10 min at room temperature. The cells were then treated with proteinase K (20 min, 37 °C in humid chamber), followed by a new neutralization step. To dehydrate the slides, they were immersed in EtOH 90% and EtOH absolute for 10 min each. Finally, the slides were stained with Sybr Gold 1X.
The DNA migration was analyzed using a LEICA microscope with fluorescence (40×) by scoring 100 cells per slide in duplicate. The tail moment parameter was then analyzed by the Comet Score software.

[4] = test system: MCF-7; test: MTS cell viability assay on MCF-7 cells; type: cell-based; conditions: Homo sapiens, MCF7, 48 h, Dox 1 µM, mean ± SEM, NA = no activity, read-out: Percentage (%) of inhibition, MCF-7
Procedure: as §1, §2

[5] = test system: HeLa; test: MTS cell viability assay on HeLa cells; type: cell-based; conditions: Homo sapiens, 48 h, Dox 1 µM, mean ± SEM, NA = no activity, read-out: Percentage (%) of inhibition, HeLa
[6] = test system: CHO-K1; test: MTS cell viability assay on immortalized CHO-K1 cells; type: cell-based, hamster; conditions: 48 h, Dox 1 µM, mean ± SEM, NA = no activity, read-out: Percentage (%) of inhibition, CHO-K1
Procedure: as §1, §2

| SMILES | melting point | IC50 [1] | inhibition at 100 µM [2] [%] | Comet tail length, mean (vary) [3] | Comet tail length, median (Q50) [3] | inhibition at 100 µM [4] [%] | inhibition at 100 µM [5] [%] | Genotoxic effect (DNA breaks) in comet assay [3] | inhibition at 100 µM [6] [%] | IC50 [2] [µM] |
| --- | --- | --- | --- | --- | --- | --- | --- | --- | --- | --- |
| COc1ccc(C2[C@@]3(C(=O)N(c4ccccc4)N=C3C)[C@]23C(=O)N(c2ccccc2)N=C3C)cc1 (relative stereo) [4e, (5R*,6R*)-11-(4-Methoxyphenyl)-4,10-dimethyl-2,8-diphenyl-2,3,8,9-tetraazadispiro[4.0.4.1]undeca-3,9-diene-1,7-dione] | 163.5 to 165.7 °C | > 300 µM | 36.8 ± 1.55 | 65120000 | 64500000 | 4.47 ± 3.48 | 47.8 ± 2.45 | – | – | – |
| CSc1ccc(C2[C@]3(C(=O)N(c4ccccc4)N=C3C)[C@@]23C(=O)N(c2ccccc2)N=C3C)cc1 (relative stereo) [4u, (5R*,6R*)-11-(4-Thiomethylphenyl)-4,10-dimethyl-2,8-diphenyl-2,3,8,9-tetraazadispiro[4.0.4.1]undeca-3,9-diene-1,7-dione] | 154.4 to 157.3 °C | > 300 µM | 41 ± 1.49 | 179560000 | 177500000 | 19.5 ± 2.96 | 34.7 ± 2.29 | highest genotoxic activity; also recorded: strongest effects | 5.76 ± 3.65 | – |
| COc1ccccc1C1[C@@]2(C(=O)N(c3ccccc3)N=C2C)[C@]12C(=O)N(c1ccccc1)N=C2C (relative stereo) [4f, (5R*,6R*)-11-(2-Methoxyphenyl)-4,10-dimethyl-2,8-diphenyl-2,3,8,9-tetraazadispiro[4.0.4.1]undeca-3,9-diene-1,7-dione] | 147.8 to 149 °C | > 300 µM | 28.7 ± 0.29 | 75100000 | 80500000 | – | – | – | 2.79 ± 1.49 | – |
| CC1=NN(c2ccccc2)C(=O)[C@@]12C(c1ccccc1)[C@@]21C(=O)N(c2ccccc2)N=C1C (relative stereo) [4b, (5R*,6R*)-4,10-Dimethyl-2,8,11-triphenyl-2,3,8,9-tetraazadispiro[4.0.4.1]undeca-3,9-diene-1,7-dione] | 129 to 130 °C | > 300 µM | 21.7 ± 2.37 | 50400000 | 55000000 | 7.87 ± 2.92 | – | – | 5.76 ± 3.08 | – |
| CC1=NN(c2ccccc2)C(=O)[C@@]12C(c1ccc(OC(F)(F)F)cc1)[C@@]21C(=O)N(c2ccccc2)N=C1C (relative stereo) [4s, (5R*,6R*)-11-(4-Trifluoromethoxyphenyl)-4,10-dimethyl-2,8-diphenyl-2,3,8,9-tetraazadispiro[4.0.4.1]undeca-3,9-diene-1,7-dione] | 150.5 to 151.5 °C | > 300 µM | 70.2 | 39720000 | 39500000 | 9.91 ± 3.37 | 43.6 ± 1.75 | weakest | – | 63.8 ± 6.48 |
| CC1=NN(c2ccccc2)C(=O)[C@@]12C(c1cccc(F)c1)[C@@]21C(=O)N(c2ccccc2)N=C1C (relative stereo) [4t, (5R*,6R*)-11-(3-Fluorophenyl)-4,10-dimethyl-2,8-diphenyl-2,3,8,9-tetraazadispiro[4.0.4.1]undeca-3,9-diene-1,7-dione] | 152.1 to 153 °C | > 300 µM | 47.6 ± 0.95 | 124410000 | 116000000 | 31.4 ± 3.65 | 5.06 ± 2.43 | biggest genotoxic effects | 5.08 ± 2.84 | – |
| COC(=O)c1ccc(C2[C@@]3(C(=O)N(c4ccccc4)N=C3C)[C@]23C(=O)N(c2ccccc2)N=C3C)cc1 (relative stereo) [4q, (5R*,6R*)-Methyl-4[4,10-dimethyl-2,8-diphenyl-2,3,8,9-tetraazadispiro[4.0.4.1]undeca-3,9-diene-1,7-dione-11-yl]benzoate] | 162.5 to 163.9 °C | > 300 µM | 62.9 ± 1.53 | 172025000 | 177500000 | 32.5 ± 2.33 | 31.7 ± 1.52 | highest genotoxic activity; also recorded: strongest effects | 2.29 ± 2.6 | 102 ± 7.8 |
| CC1=NN(c2ccccc2)C(=O)[C@@]12C(c1ccc([N+](=O)[O-])cc1)[C@@]21C(=O)N(c2ccccc2)N=C1C (relative stereo) [4k, (5R*,6R*)-11-(4-Nitrophenyl)-4,10-dimethyl-2,8-diphenyl-2,3,8,9-tetraazadispiro[4.0.4.1]undeca-3,9-diene-1,7-dione] | 145.3 to 152.9 °C (dec.) | 234 µM and < 300 µM | 67.6 ± 0.77 | 142780000 | 128000000 | 43 ± 3.46 | 47.2 ± 1.36 | biggest genotoxic effects; also recorded: strongest effects | – | 84 ± 9.46 |
| CC1=NN(c2ccccc2)C(=O)[C@@]12C(c1cccc([N+](=O)[O-])c1)[C@@]21C(=O)N(c2ccccc2)N=C1C (relative stereo) [4d, (5R*,6R*)-11-(3-Nitrophenyl)-4,10-dimethyl-2,8-diphenyl-2,3,8,9-tetraazadispiro[4.0.4.1]undeca-3,9-diene-1,7-dione] | 183.9 to 185 °C | > 300 µM | 68.9 ± 1.72 | 75120000 | 83500000 | 39.4 ± 2.29 | 48.6 ± 4.91 | – | 4.4 ± 0.72 | 94 ± 4.09 |
